Like-named read-outs stand apart in the source and are kept apart here.
Legend:
full-length TDP1 [1] = biological target: T1, full-length TDP1 (Homo sapiens, UniProt Q9NUW8); experiment: Gel-based fluorescence assay of TDP1-catalyzed hydrolysis, full-length TDP1; format: biochemical; details: for IC50: full-length recombinant TDP1, 5′-Cy5 N14Y DNA substrate, 15 min, room temperature, repeated three times
T1 construct: was incubated with recombinant full-length TDP1 or TDP1 (148–608) (40 p.m.)
Description: (§1) The synthetic products were examined for their ability to inhibit TDP1 catalysis in in vitro gel-based fluorescence assays as previously described ([Lountos et al., 2019]; [Zhao et al., 2021]). A 5′-Cy5-labelled DNA substrate (N14Y, 5′-Cy5-[…]-pY-3′) was incubated in TDP1 reaction buffer with recombinant TDP1 ([…].) or truncated TDP1 (148–608) in the absence or presence of inhibitors for 15 min at room temperature. Inhibitors were evaluated at concentrations ranging from 12 μM to 27 mM (Figure 4). The TDP1 inhibition values were calculated based on gel images of cleavage product (N14P, 5′-Cy5-[…]-p-3′) shown in Figure 4 and listed in Table 1.
(§2) The inhibition of TDP1 was also conducted according to gel-based as previously described ([Lountos et al., 2019]; [Zhao et al., 2021]). Briefly, the DNA substrate (1 nM, 5′Cy5-[…]-pY-3′) was incubated with recombinant full-length TDP1 or TDP1 (148–608) (40 p.m.) in the absence or presence of inhibitors for 15 min at room temperature in TDP1 reaction buffer (50 mM Tris HCl, pH 7.5, 80 mM KCl, 2 mM EDTA, 1 mM DTT, 40 μg/ml BSA and 0.01% Tween-20). Reactions were stopped by adding an equal volume of gel loading buffer (99.5% (v/v) formamide, 5 mM EDTA). Samples were then subjected to a 20% denaturing PAGE gel following by gel scanning using a Typhoon FLA 9500 scanner (GE Healthcare). The IC50 values of TDP1 inhibitors were calculated by comparing the percentage of cleavage product (5′Cy5-[…]-p-3′) to DMSO control.

TDP1 (148–608) = biological target: T2, TDP1 (148–608) (Homo sapiens, UniProt Q9NUW8); experiment: Gel-based fluorescence assay of TDP1-catalyzed hydrolysis, truncated TDP1 (148–608); format: biochemical; details: for IC50: truncated TDP1 (148–608) catalytic domain, 5′-Cy5 N14Y DNA substrate, 15 min, room temperature, repeated three times
T2 construct: was incubated with recombinant full-length TDP1 or TDP1 (148–608) (40 p.m.)
T2 sequence (Q9NUW8 148-608): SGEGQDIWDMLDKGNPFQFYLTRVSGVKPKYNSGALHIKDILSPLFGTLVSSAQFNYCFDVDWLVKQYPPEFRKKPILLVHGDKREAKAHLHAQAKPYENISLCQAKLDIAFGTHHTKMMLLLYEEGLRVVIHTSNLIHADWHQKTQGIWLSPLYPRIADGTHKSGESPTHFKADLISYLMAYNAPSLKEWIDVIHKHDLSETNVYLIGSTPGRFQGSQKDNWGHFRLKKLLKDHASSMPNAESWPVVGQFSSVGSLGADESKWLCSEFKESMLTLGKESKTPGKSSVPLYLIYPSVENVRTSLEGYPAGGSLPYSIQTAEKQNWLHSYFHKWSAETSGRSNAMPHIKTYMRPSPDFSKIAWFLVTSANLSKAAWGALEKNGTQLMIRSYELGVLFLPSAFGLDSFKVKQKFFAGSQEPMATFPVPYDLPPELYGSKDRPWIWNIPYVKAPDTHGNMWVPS
Description: as §1, §2

[2] = Drug solubility observed at high concentrations in the gel assay; format: physicochemical; details: high concentrations in TDP1 gel assay (crescent vague bands); series up to 9 mM (3c) or 27 mM
Description: FIGURE 4 Representative gels for inhibition of full-length TDP1-catalyzed hydrolysis by phenylphosphonic acids 3a—3e and benzylphosphonic acids 4a—4c. In each gel: lane 1, N14Y only; lane 2, N14Y and TDP1; lanes 3–10, 3-fold serial dilution of drugs from 12 μM to 27 mM except for 3c from 12 μM to 9 mM.

full-length TDP1 [3] = biological target: T1, full-length TDP1; set-up: method as in Zhao et al., 2021; details: gel-based fluorescence assay, compounds reported in previous paper, ref Zhao et al., 2021; cited from earlier work

T1 sequence (Q9NUW8 whole entry): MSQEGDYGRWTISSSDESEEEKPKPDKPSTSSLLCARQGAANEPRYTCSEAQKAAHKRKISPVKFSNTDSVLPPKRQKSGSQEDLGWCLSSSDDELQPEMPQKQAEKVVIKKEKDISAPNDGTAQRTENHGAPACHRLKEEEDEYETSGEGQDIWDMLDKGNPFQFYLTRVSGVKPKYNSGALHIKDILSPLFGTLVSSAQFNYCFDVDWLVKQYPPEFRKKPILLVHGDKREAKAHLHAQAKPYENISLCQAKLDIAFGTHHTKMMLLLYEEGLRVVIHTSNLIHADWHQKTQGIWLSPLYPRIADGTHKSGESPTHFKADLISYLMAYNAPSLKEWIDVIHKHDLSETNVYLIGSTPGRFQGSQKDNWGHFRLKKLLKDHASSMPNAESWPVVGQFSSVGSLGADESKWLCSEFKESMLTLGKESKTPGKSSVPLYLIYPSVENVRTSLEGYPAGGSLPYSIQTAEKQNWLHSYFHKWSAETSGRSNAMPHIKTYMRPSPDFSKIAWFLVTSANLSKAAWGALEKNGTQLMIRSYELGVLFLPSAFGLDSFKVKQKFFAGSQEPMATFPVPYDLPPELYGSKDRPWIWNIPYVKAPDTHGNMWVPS

| SMILES | IC50 (full-length TDP1 [1]) [µM] | IC50 (TDP1 (148–608)) [µM] | Drug solubility [2] | IC50 (full-length TDP1 [3]) [µM] | Increase of inhibitory potency on adding a 7-phenyl group (full-length TDP1 [1]; full-length TDP1, 3c and 3e relative to 3b and 3d, 4c relative to 4b) | More potent using catalytic domain TDP1 (148–608) relative to full-length TDP1 (TDP1 (148–608); TDP1 (148–608) vs full-length TDP1) [fold] |
| --- | --- | --- | --- | --- | --- | --- |
| O=P(O)(O)c1ccc(Nc2c(-c3ccccc3O)nc3cc(-c4ccccc4)ccn23)cc1 [Compound 3e, (4-((2-(2-Hydroxyphenyl)-7-phenylimidazo [1,2-a]pyridin-3-yl)amino)phenyl)phosphonic acid] | 293 ± 7.5 | 605 ± 32 | poor drug solubility |  |  |  |
| O=C(O)c1ccc(Nc2c(-c3ccccc3)nc3cnccn23)cc1C(=O)O [Compound 2a] |  |  |  | > 100 |  |  |
| O=P(O)(O)Cc1ccc(Nc2c(-c3ccccc3)nc3cc(-c4ccccc4)ccn23)cc1 [Compound 4c, (4-((2,7-Diphenylimidazo [1,2-a]pyridin-3-yl)amino)benzyl)phosphonic acid] | 583 ± 11.5 | 1190 ± 350 |  |  | approximately 3 fold |  |
| O=P(O)(O)c1ccc(Nc2c(-c3ccccc3)nc3ccccn23)cc1 [Compound 3b, (4-((2-Phenylimidazo [1,2-a]pyridin-3-yl)amino)phenyl)phosphonic acid] | 1660 ± 160 | 3810 ± 751 |  |  |  |  |
| O=P(O)(O)Cc1ccc(Nc2c(-c3ccccc3)nc3ccccn23)cc1 [Compound 4b, (4-((2-Phenylimidazo [1,2-a]pyridin-3-yl)amino)benzyl)phosphonic acid] | 1650 ± 850 | 4810 ± 228 |  |  |  |  |
| O=P(O)(O)Cc1ccc(Nc2c(-c3ccccc3)nc3cnccn23)cc1 [Compound 4a, (4-((2-Phenylimidazo [1,2-a]pyrazin-3-yl)amino)benzyl)phosphonic acid] | 1280 ± 112 | 4360 ± 472 |  |  |  |  |
| O=P(O)(O)c1ccc(Nc2c(-c3ccccc3)nc3cnccn23)cc1 [Compound 3a, (4-((2-Phenylimidazo [1,2-a]pyrazin-3-yl)amino)phenyl)phosphonic acid] | 2450 ± 36 | 4720 ± 430 |  |  |  |  |
| O=P(O)(O)c1ccc(Nc2c(-c3ccccc3O)nc3ccccn23)cc1 [Compound 3d, (4-((2-(2-Hydroxyphenyl)imidazo [1,2-a]pyridin-3-yl)amino)phenyl)phosphonic acid] | 1580 ± 166 | 4480 ± 50 |  |  |  |  |
| O=P(O)(O)c1ccc(Nc2c(-c3ccccc3)nc3cc(-c4ccccc4)ccn23)cc1 [Compound 3c, (4-((2,7-Diphenylimidazo [1,2-a]pyridin-3-yl)amino)phenyl)phosphonic acid] | 545 ± 8 | 225 ± 2.3 | poor drug solubility |  |  | 2 |

From paper PMC9424690, “Phosphonic acid-containing inhibitors of tyrosyl-DNA phosphodiesterase 1” (Frontiers in Chemistry, 2022)
